Measurements taken from patent publication US11376230B2 (priority 2011, dated 2022).
Read-outs that look alike come from different tables or passages of the source.

Experiments:
[1] = system: bacterially infected chronic wounds; conditions: dressings with 0.2 mg/cm^2 or less on surface, with negative pressure wound therapy; initial results
Method: To elucidate the clinical potential of sodium diacetate in wound care human clinical trials are being performed in a hospital setting to test the efficacy of dressings incorporating sodium diacetate on bacterially infected chronic wounds.
Dressings are used employing 0.2 mg/cm^2 or less of sodium diacetate on the surface of the dressing material. Incorporating smaller amounts of sodium diacetate is tested incrementally. Initial trials are performed using negative pressure wound therapy in combination with dressings incorporating sodium diacetate as described herein. Trials are performed on test subjects having chronic wounds due to infection with for example P. aeruginosa and with reduced immune responses due to for example, drug abuse, diabetes, or obesity.

[2] = system: Klebsiella pneumoniae (clinical ESBL producing strain) biofilm; conditions: dry sodium diacetate, same method as example 3
Description: (§1) The wild-type P. aeruginosa PAO1 used for the planktonic and biofilm experiments was obtained from the Pseudomonas Genetic Stock Center (www.pseudomonas.med.ecu.edu, strain PAO0001). The wild-type S. aureus 8325-4, used for planktonic and biofilm experiments was described by Novick, R. P. 1967. The following bacteria were obtained from the Department of Clinical Microbiology, Copenhagen University Hospital, Denmark: E. coli (wild type and clinical ESBL producing strains), S. aureus (wild type and clinical MRSA strains) and Klebsiella pneumoniae (clinical ESBL producing strain).
(§2) Two types of biofilm setups were used, micropore filter assay and a microtitter plate assay: • The microtitter plate assay is based on biofilms growing in microtiter dishes with AB minimal medium containing 0.3 mM glucose as described by O′ toole et al (1999). • The Micro-pore assay is based on biofilms growing on a micropore filter on AB minimal agar plates. The micropore filters are placed on top of an AB minimal agar plate. Bacteria are propagated on the micro-pore filters as spots of 20 μl bacterial suspension and incubated at 37° C. For a biofilm to develop the filters were transferred to a fresh AB minimal agar plate once after 24 hours. The biofilm were mature and ready for use after 48 hours incubation in total, at 37° C. Planktonic cultures were grown in shake flasks at 37° C. The microtitter plate assay for biofilm tolerance to sodium diacetate was assessed by exchanging the AB minimal medium of 24 h old biofilms with AB minimal medium supplemented with different concentrations of sodium diacetate.
(§3) To elucidate the efficacy of dry sodium diacetate on microbial biofilms of P. aeruginosa. Bacteria were propagated on a micropore filter for biofilm formation. The Micro-pore filters were placed on top of an LB-agar plate. Bacteria were spread on the micro-pore filters as spots and incubated at 37° C. For a biofilm to develop the filters were transferred to a fresh LB-agar plate once after 24 hours. The biofilm were mature and ready for use after 48 hours incubation in total, at 37° C.
(§4) After 48 hours NaHAc2 was added on top of the biofilm spot, either directly or between two pieces of gauze. The control was plain gauze. All treatments were incubated for 24 hours. The effect was evaluated by replication of the micro pore filter after treatment. The endpoint was growth or no growth of bacteria after the treatment.

[3] = system: P. aeruginosa mature biofilm
Description: as §1, §2, §3, §4

[4] = system: S. aureus (wild type and clinical MRSA strains) biofilm; conditions: dry sodium diacetate, same method as example 3
Description: as §1, §2, §3, §4

[5] = system: E. coli (wild type and clinical ESBL producing strains) biofilm
Description: as §1, §2, §3, §4

P. aeruginosa biofilms = conditions: for Average CFU: 24 h treatment of 24 h old biofilm
Description: as §1
For plating, Luria broth (LB) medium mix with 2.0% agar was used. For all experiments including bacterial biofilms, AB minimal medium supplemented with glucose was used except if different is mentioned. AB minimal medium consists of: A standard buffer system consisting of (NH4)2SO4 (15.1 mM), Na2HPO4.2H2O (33.7 mM) and KH2PO4 (22.0 mM. NaCl (0.051 M), MgCl2 (1 mM), CaCl2 (0.1 mM), and trace metals (100 μl/liter). The trace metal solution contained CaSa4.2H2O (200 mg/liter), FeSO4.7H2O (200 mg/liter), MnSO4.H2O (20 mg/liter), CuSO4.5H2O (20 mg/liter), ZnSO4.7H2O (20 mg/liter), CoSO4.7H2O (10 mg/liter), NaMoO4.H2O, and H3BO3 (5 mg/liter).
as §2
The antimicrobial effect was determined by plating the treated and non-treated biofilm. To ensure complete removal of all adhering bacteria the wells of the microtitter plate were washed mechanically.

[6] = 24 hours old static biofilms in AB minimal medium

Compound: CC(=O)O.CC(=O)[O-].[Na+] [sodium diacetate]
- infections of chronic wounds [1]: eradicated
- wound healing [1]: accelerated
- eradication of biofilm infection [2]: completely eradicated
- growth or no growth of bacteria after treatment ([3]; NaHAc2 on top of 48 h biofilm spot, directly or between two pieces of gauze, 24 hours): completely eradicates
- growth or no growth of bacteria after treatment ([3]; treatment 1: dry between gauze): complete eradication
- growth or no growth of bacteria after treatment ([3]; treatment 2: between gauze soaked in wounds buffer): complete eradication
- growth or no growth of bacteria after treatment ([3]; treatment 3: foam soaked in wounds buffer): complete eradication
- growth or no growth of bacteria after treatment ([3]; treatment 4: dry): complete eradication
- eradication of biofilm infection [4]: completely eradicated
- growth or no growth of bacteria after treatment ([5]; between gauze soaked in wounds buffer (FIG. 4)): complete eradication
- growth or no growth of bacteria after treatment ([5]; dry between gauze (FIG. 4)): complete eradication
- eradication of biofilm infection ([5]; dry sodium diacetate, same method as example 3, wild type and clinical ESBL producing strains): completely eradicated
- growth or no growth of bacteria after treatment ([5]; foam soaked in wounds buffer (FIG. 4)): complete eradication
- Media pH (0.50% NaHAc2 (w/v) in AB minimal media): 5.78
- Media pH (0.75% NaHAc2 (w/v) in AB minimal media): 5.31
- Media pH (1.00% NaHAc2 (w/v) in AB minimal media): 5.09
- Media pH (1.25% NaHAc2 (w/v) in AB minimal media): 4.99
- Media pH (1.50% NaHAc2 (w/v) in AB minimal media): 4.91
- Media pH (1.75% NaHAc2 (w/v) in AB minimal media): 4.86
- Media pH (2.00% NaHAc2 (w/v) in AB minimal media): 4.83
- Media pH (2.25% NaHAc2 (w/v) in AB minimal media): 4.80
- Media pH (2.50% NaHAc2 (w/v) in AB minimal media): 4.78
- Media pH (2.75% NaHAc2 (w/v) in AB minimal media): 4.76
- Media pH (3.00% NaHAc2 (w/v) in AB minimal media): 4.74
- concentration at which the pH value levels out (AB minimal media (FIG. 1)): around 1.5 g/L
- pH of aqueous AB minimal media (at 3 g/L of sodium diacetate (FIG. 1)): ~4.75
- Average CFU (P. aeruginosa biofilms; 0.25% NaHAc2 (w/v)): 1.15E+09 CFU
- Average CFU (P. aeruginosa biofilms; 0.50% NaHAc2 (w/v)): 3.12E+08 CFU
- Average CFU (P. aeruginosa biofilms; 0.75% NaHAc2 (w/v)): 9.63E+07 CFU
- Average CFU (P. aeruginosa biofilms; 1.00% NaHAc2 (w/v)): 8.05E+06 CFU
- Average CFU (P. aeruginosa biofilms; 1.25% NaHAc2 (w/v)): 1.96E+05 CFU
- Average CFU (P. aeruginosa biofilms; 1.50% NaHAc2 (w/v)): 1.98E+03 CFU
- Average CFU (P. aeruginosa biofilms; 1.75% NaHAc2 (w/v)): 0 CFU
- Average CFU (P. aeruginosa biofilms; 2.00% NaHAc2 (w/v)): 0 CFU
- Average CFU (P. aeruginosa biofilms; 2.25% NaHAc2 (w/v)): 0 CFU
- Average CFU (P. aeruginosa biofilms; 2.50% NaHAc2 (w/v)): 0 CFU
- Average CFU (P. aeruginosa biofilms; 2.75% NaHAc2 (w/v)): 0 CFU
- Average CFU (P. aeruginosa biofilms; 3% NaHAc2 (w/v)): 0 CFU
- concentration at which an effect of the salt is already seen (P. aeruginosa biofilms; [6]): 0.25 % (W/V)
- concentration giving complete killing of the biofilm bacteria (P. aeruginosa biofilms; [6]): 1.75 % (W/V)
- concentration giving complete killing of the biofilm bacteria (P. aeruginosa biofilms; 24 hours old static biofilms in AB minimal medium, listed as NaHAc2): ≥ 1.75 % (W/V)
- killing of biofilm (P. aeruginosa biofilms; even the lowest concentrations of NaHAc2): partial killing
